According to patent US20120003655A1, “IDENTIFICATION OF NEUROPROTECTIVE AGENTS USING PRO-INFLAMMATORY HUMAN GLIAL CELLS” (The Salk Institute for Biological Studies, priority 2008, published 2012):

Columns and labels:
[1] = tested on: interaction of Nurr1 and p65; assay: Co-immunoprecipitation of Nurr1 and p65 in LPS-stimulated BV2 cells; format: cell-based, mouse; conditions: SB21 1 h prior to LPS (1 μg/ml), co-IP and Western blot
Experimental: (§1) FIGS. 12A-I show Nurr1 acting as an RXR-independent, GSK3β-dependent transrepressor for NF-κB. (FIG. 12A) Nurr1 is recruited to the TNFα-promoter in response to LPS. This recruitment is blocked by the GSK3β-specific inhibitor SB216763 (SB21). BV2 cells were pre-incubated with DMSO or 30 μM SB21 for 1 h followed by LPS stimulation for the indicated times before ChIP assay. […] (FIG. 12B) Nurr1-mediated repression is independent of DNA binding and RXR dimerization. RAW264.7 cells were transfected with wild type Nurr1, P-box mutant Nurr1C280A/E281A (CEAA) and I-box mutant Nurr1K555A/L556A/L227A (KLL). iNOS-promoter activity in RAW264.7 cells measured by luciferase-reporter assay. *, p<0.01 compared to control (Mock). (FIG. 12C) siRNA against Ubc9 abolishes Nurr1-mediated transrepression of iNOS-promoter activity. *, p<0.01 compared to Nurr1 with control siRNA. (FIG. 12D) K558 and K576 are the predominant SUMOylation sites of Nurr1. […] Equal loading was determined by re-blotting using anti-Nurr1 antibody. […] Nurr1 expression vector was transfected into RAW264.7 cells together with control siRNA or siRNA against GSK3β and iNOS-promoter activity was determined as described before. *, p<0.01 compared to Nurr1 with control siRNA. (FIG. 12I) S468A mutant of p65 abolishes Nurr1-mediated repression of iNOS-promoter activity. iNOS-promoter activity was determined as described before. […]

[2] = tested on: recruitment of Nurr1 to the TNFα-promoter; assay: ChIP assay, Nurr1 recruitment to TNFα-promoter in BV2 cells; format: cell-based, mouse; conditions: 30 μM SB21 for 1 h followed by LPS
Experimental: as §1, with “(Mock).” for “(Mock). (FIG. 12C) siRNA against Ubc9 abolishes Nurr1-mediated transrepression of iNOS-promoter activity. *, p<0.01 compared to Nurr1 with control siRNA. (FIG. 12D) K558 and K576 are the predominant SUMOylation sites of Nurr1.”
(§2) ChIP assay. […] Quantitative PCR (qPCR) was performed with SYBR-GREEN PCR master Mix (ABI) or SYBR-GreenER (Invitrogen) and analyzed on a 7200 real time PCR system (ABI).

[3] = tested on: recruitment of Nurr1 at iNOS-promoter; assay: ChIP assay, Nurr1 recruitment to iNOS-promoter in mouse primary astrocytes; format: cell-based; conditions: SB21 pre-incubation, IL1β stimulation
Experimental: FIGS. 15A-I show the CoREST complex requirement for Nurr1-mediated repression in astrocytes. (FIG. 15A) IL1β stimulation enhances physical association of Nurr1 and p65 in mouse primary astrocytes. Lysates of astrocytes stimulated with IL1β (10 ng/ml) for the indicated times were immunoprecipitated with anti-Nurr1 antibody and Western blots were developed with anti-p65 antibody. Equal loading was determined as described in FIG. 12F. (FIG. 15B) Recruitment of Nurr1 and p65 to iNOS-promoter in mouse primary astrocyte shown by ChIP assay. Data represent fold enrichment of iNOS-promoter precipitated with the indicated antibodies compared to control IgG as determined by qPCR. […] Mouse primary astrocytes were treated with SB21 as described in FIG. 12A. Data represent fold enrichment of iNOS-promoter precipitated with antibody against Nurr1 compared to control IgG as determined by qPCR. […] Data represent fold enrichment of iNOS-promoter precipitated with the indicated antibodies compared to control IgG as determined by qPCR. […] Cells were stimulated with 10 ng/ml IL1β for 6 h and mRNA expression of iNOS (FIG. 15F), CSF1 (FIG. 15G) and Ncf1 (FIG. 15H) was determined by qPCR. […]
as §2

[4] = tested on: ALS; conditions: ALS patients; cited from earlier work
[5] = target: T1, Nurr1 (NR4A2), endogenous protein in mouse cells (mouse, UniProt Q06219 1-598); assay: co-IP from BV2 lysates, anti-Nurr1 IP, anti-p65 Western blot (FIG. 12F)
T1 construct: Endogenous protein, immunoprecipitated or blotted with anti-Nurr1 (E-20, Santa Cruz)
T1 sequence (Q06219 whole entry): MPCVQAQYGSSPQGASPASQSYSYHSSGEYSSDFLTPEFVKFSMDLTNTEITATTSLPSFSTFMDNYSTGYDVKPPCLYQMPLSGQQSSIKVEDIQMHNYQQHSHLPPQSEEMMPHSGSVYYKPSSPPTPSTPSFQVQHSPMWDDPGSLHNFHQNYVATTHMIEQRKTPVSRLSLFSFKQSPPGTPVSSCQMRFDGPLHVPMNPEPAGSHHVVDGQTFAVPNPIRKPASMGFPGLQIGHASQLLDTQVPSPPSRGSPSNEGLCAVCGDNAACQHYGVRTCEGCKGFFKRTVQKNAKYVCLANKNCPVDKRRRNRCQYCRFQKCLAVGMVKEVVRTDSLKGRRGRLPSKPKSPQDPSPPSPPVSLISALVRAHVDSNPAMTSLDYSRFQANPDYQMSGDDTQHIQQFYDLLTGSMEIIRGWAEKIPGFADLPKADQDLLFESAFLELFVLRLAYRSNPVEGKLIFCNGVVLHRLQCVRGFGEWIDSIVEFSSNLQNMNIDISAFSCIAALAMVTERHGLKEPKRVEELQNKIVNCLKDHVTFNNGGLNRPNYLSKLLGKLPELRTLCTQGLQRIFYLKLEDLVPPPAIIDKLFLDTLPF
Experimental: Lysates of BV2 cells stimulated with LPS (1 μg/ml) for the indicated times were immunoprecipitated with anti-Nurr1 antibody and Western blots were developed with anti-p65 antibody. Equal loading was determined by re-blotting using anti-Nurr1 antibody. (FIG. 12G) SB21 impairs the binding of Nurr1 and p65 in a dose-dependent manner. BV2 cells were incubated with SB21 at the indicated concentrations for 1 h prior to stimulation with LPS (1 μg/ml). IP and Western blotting were performed as described in FIG. 12F. (FIG. 12H) siRNA against GSK3β abolishes Nurr1-mediated repression of iNOS-promoter activity. Nurr1 expression vector was transfected into RAW264.7 cells together with control siRNA or siRNA against GSK3β and iNOS-promoter activity was determined as described before. *, p<0.01 compared to Nurr1 with control siRNA. (FIG. 12I) S468A mutant of p65 abolishes Nurr1-mediated repression of iNOS-promoter activity. iNOS-promoter activity was determined as described before.
Co-immunoprecipitations and Western blotting. Hela cells or NIH3T3 cells were transfected using Lipofectamine 2000 reagent (Invitrogen) following manufacturer's protocol. Transfected cells were stimulated by 10 ng/ml recombinant human or mouse mIL1β (R & D system) for the indicated times prior to harvesting. […]

Cn1cc(C2=C(c3ccc(Cl)cc3Cl)C(=O)NC2=O)c2ccccc21 [SB216763]
interaction (binding) of Nurr1 and p65 [1]: inhibited the interaction of Nurr1 and p65 in BV2 cells in a dose-dependent manner | interaction (binding) of Nurr1 and p65 ([1]; listed as SB21): impairs the binding of Nurr1 and p65 in a dose-dependent manner | recruitment of Nurr1 to the TNFα-promoter [2]: blocked | recruitment of Nurr1 to the TNFα-promoter ([2]; listed as SB21): prevented the recruitment of Nurr1 to the TNFα-promoter | recruitment of Nurr1 at iNOS-promoter [3]: Altered recruitment of Nurr1 to iNOS-promoter | recruitment of Nurr1 at iNOS-promoter ([3]; listed as SB21): decreases the recruitment of Nurr1 at iNOS-promoter

Nc1nc2ccc(OC(F)(F)F)cc2s1 [riluzole]
extension of the course of the disease [4]: 2 months

B1: NF-κB-p65, endogenous protein in mouse cells (other, UniProt Q04207 1-549, looked up)
chain: MDDLFPLIFPSEPAQASGPYVEIIEQPKQRGMRFRYKCEGRSAGSIPGERSTDTTKTHPTIKINGYTGPGTVRISLVTKDPPHRPHPHELVGKDCRDGYYEADLCPDRSIHSFQNLGIQCVKKRDLEQAISQRIQTNNNPFHVPIEEQRGDYDLNAVRLCFQVTVRDPAGRPLLLTPVLSHPIFDNRAPNTAELKICRVNRNSGSCLGGDEIFLLCDKVQKEDIEVYFTGPGWEARGSFSQADVHRQVAIVFRTPPYADPSLQAPVRVSMQLRRPSDRELSEPMEFQYLPDTDDRHRIEEKRKRTYETFKSIMKKSPFNGPTEPRPPTRRIAVPTRNSTSVPKPAPQPYTFPASLSTINFDEFSPMLLPSGQISNQALALAPSSAPVLAQTMVPSSAMVPLAQPPAPAPVLTPGPPQSLSAPVPKSTQAGEGTLSEALLHLQFDADEDLGALLGNSTDPGVFTDLASVDNSEFQQLLNQGVSMSHSTAEPMLMEYPEAITRLVTGSQRPPDPAPTPLGTSGLPNGLSGDEDFSSIADMDFSALLSQISS
notes: Endogenous protein, detected with anti-p65 (C-20, Santa Cruz)
binding result [5]: binds
